The target in the assay is T1, cyclooxygenase (COX)-2 (Homo sapiens, UniProt P35354).
T1 construct: gene PTGS2
T1 sequence (P35354 18-604): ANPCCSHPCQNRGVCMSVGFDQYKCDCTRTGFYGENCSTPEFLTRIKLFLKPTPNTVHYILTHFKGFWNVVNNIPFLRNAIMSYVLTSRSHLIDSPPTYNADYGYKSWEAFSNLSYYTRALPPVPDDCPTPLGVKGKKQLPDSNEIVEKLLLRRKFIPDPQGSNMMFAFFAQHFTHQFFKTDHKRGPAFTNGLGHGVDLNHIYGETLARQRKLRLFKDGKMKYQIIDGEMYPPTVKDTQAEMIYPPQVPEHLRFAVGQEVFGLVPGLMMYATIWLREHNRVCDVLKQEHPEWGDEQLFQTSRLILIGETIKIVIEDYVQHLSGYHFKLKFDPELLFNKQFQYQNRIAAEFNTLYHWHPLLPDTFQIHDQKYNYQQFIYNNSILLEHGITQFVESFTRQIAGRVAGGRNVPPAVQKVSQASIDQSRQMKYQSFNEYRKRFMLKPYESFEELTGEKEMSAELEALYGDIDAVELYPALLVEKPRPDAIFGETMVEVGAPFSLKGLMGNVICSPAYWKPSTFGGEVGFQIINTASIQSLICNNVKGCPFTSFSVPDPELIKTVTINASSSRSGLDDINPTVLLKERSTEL
In words: LPS-stimulated human whole blood PGE2 (RIA); also HCA7 cells (COX-2 only), IC50 […], with washout.

pIC50: −log10 of the molar value.

Data on one molecule can be found in paper PMC11628281, “A sulfonimide derivative of bezafibrate as a dual inhibitor of cyclooxygenase-2 and PPARα” (Frontiers in Pharmacology, 2024).

One may read the pIC50 as the negative decadic logarithm of the IC50, by convention in mol/L. Low values mean a high IC50, high ones a low IC50.

With `CC(C)(Oc1ccc(CCNC(=O)c2ccc(Cl)cc2)cc1)C(=O)NS(=O)(=O)c1ccccc1` [compound 6, AA520], the pIC50 was 7.00.
